Source: article PMC5974752, “Bax/Tubulin/Epithelial-Mesenchymal Pathways Determine the Efficacy of Silybin Analog HM015k in Colorectal Cancer Cell Growth and Metastasis” (Frontiers in Pharmacology, 2018)

Tests used:
HCT116 [1] = assay: MTT assay; assay type: cell-based, human; conditions: for IC50: Homo sapiens, HCT-116, MTT, 72 h incubation, mean ± SD of three experiments, read-out: IC50 ± SD, Colon HCT116
Experimental: (§1) The 3-(4,5-dimethylthiazol-2-yl)-2,5-diphenyltetrazolium bromide (MTT) assay was used to determine the sensitivity of the different CRC cells to the novel silybin derivatives (Hussein et al., [2017]; Manivannan et al., [2017]). The cells were seeded at a density of 4,000–5,000 cells/well in 96 well plates and incubated with serial dilutions of the compounds (0, 0.1, 0.3, 1, 3, 10, 30, and 100 μM). The MTT dye (4 mg/ml) was added after 72 h of incubation and incubated with the cells for an additional 4 h at 37°C. Following incubation, the media was discarded and the formazan crystals were dissolved by adding 100 μL of DMSO to each well. A DTX 880 multimode detector (Beckman Coulter Life, Indianapolis IN, USA) was used to determine the absorbance readings at a wavelength of 570 nm. The IC50 values were determined based on 3 separate experiments, with each experiment done in triplicate. The selectivity of the compounds was determined by comparing their cytotoxicity for CRC to normal epithelial cell lines (CHO, and CRL1459).

LOVO = assay: MTT assay; assay type: cell-based; conditions: Homo sapiens, 72 h incubation, mean ± SD of three experiments, read-out: IC50 ± SD, Colon LOVO
Experimental: as §1

S1 = assay: MTT assay; assay type: cell-based; conditions: Homo sapiens, 72 h incubation, mean ± SD of three experiments, read-out: IC50 ± SD, Colon S1
Experimental: as §1

CHO = assay: MTT assay, normal cell line; assay type: cell-based, Chinese hamster; conditions: Cricetulus griseus, 72 h incubation, mean ± SD of three experiments
Experimental: as §1

CRL-1459 = assay: MTT assay, normal cell line; assay type: cell-based; conditions: 72 h incubation, mean ± SD of three experiments
Experimental: as §1

[2] = test system: CRC cell lines (HCT116, LOVO, and S1); assay: MTT assay, CRC cell lines together; assay type: cell-based, human
Experimental: as §1

HCT116 [3] = assay: Cell cycle analysis (PI, flow cytometry); assay type: cell-based, human; conditions: 0, 2 or 4 μM, 12 h, data not shown
Experimental: Cell cycle analysis was performed as described previously (Pozarowski and Darzynkiewicz, [2004]). Briefly, a 6 well plate was used for the seeding of HCT116 at 1 × 10^6 cells/well. The next day, 15j and 15k (0, 2, or 4 μM) were added and incubated with the seeded cells. After 12 h, the cells were trypsinzed with 0.25% trypsin, 2.21 mM EDTA, 1X, washed, counted and resuspended in 0.5 ml of ice cold PBS. PI stain was added to each suspension for at least 15 min to stain the DNA. The cell cycle analysis and cell distribution for each phase was measured using a BD Accuri™ C6 flow cytometer (BD Biosciences, Becton-Dickinson, San Jose, CA, USA) and analyzed using FCS express 5 plus De Novo software (Glendale, CA, USA).

COLO 205 cell line = assay: Transwell migration assay; assay type: cell-based; conditions: 2 and 4 μM, data not shown
Experimental: (§2) The effect of compound 15k on the invasiveness of LOVO was tested using 24 trans-well inserts with an […]. The addition of the insert to the well forms two chambers (upper and lower), where the upper chamber was used to grow the cells on the porous membrane. The lower chamber was filled with 600 μl of cell-free DMEM medium. A 200 μl of cell suspension was added to each insert and allowed to attach for 1 h. The test compound was added in different concentrations and incubated with the cells for 24 h. […] Finally, the remaining migrated cells were fixed by methanol and dyed with 0.1% crystal violet dye and observed with an EVOS microscope. The number of migrated cells was counted and compared between the treated and control cells.
The development of cancer metastasis is dependent on the migration and invasive properties of cancerous cells (van Zijl et al., [2011]). The wound healing and transwell migration assays were used with LOVO cells, as a model for metastatic CRC as it is characterized by a high level of invasiveness (Fan et al., [2015]). The wound healing assay is a well-established method to detect and analyze cell migration potential (Liang et al., [2007]). […] The effect of compound 15k on the invasiveness of COLO 205 cell line was also measured using trans-well migration assay. […] 15j also reversed cell migration and metastasis at different concentrations.

HCT116 cells [4] = assay: CellTiter-Glo luminescent assay (ATP content); assay type: cell-based; conditions: Homo sapiens, HCT-116, data not shown, read-out: IC50, ATP depletion
Experimental: Subsequently, we conducted experiments to determine if compound 15k produced a time-dependent effect on cell death. […] The HCT116 cells had intense fluorescence over time compared to the cells incubated with vehicle, with a significant difference in the number of dead cells after 24 h of incubation with 2 μM of 15k. […] The cytotoxicity of 15k and 15j in HCT116 cells were further determined using a more homogeneous CellTiter-Glo® luminescent cell based assay that measures the ATP content in the metabolically active cells.

HCT116 cells [5] = assay: Colony formation assay; assay type: cell-based, human; conditions: 2 and 4 μM, 12 h incubation, colonies 10–14 days, vs vehicle control
Experimental: In this assay, HCT116 cells were seeded in 6 well plates at a density of 250,000 cells/plate and allowed to grow overnight. Compounds 15j and 15k (0, 2 or 4 μM) were added the following day. After 12 h of incubation, the medium was discarded and cells were trypsinized with 0.25% trypsin, 2.21 mM EDTA, 1X, harvested, counted and reseeded in 6 well plates at a low density (500 cell/well). The cells were allowed to form colonies for 10–14 days at 37°C, with the medium being changed every other day. Subsequently, methanol was used to fix the colonies formed in each plate, followed by dyeing the colonies with 0.1% crystal violet dye for 30 min. Finally, colonies were viewed and counted under an EVOS microscope (Themo Fisher Scientific, Wayne, MI, USA). The colony formation rate equation was applied for each compound: Colony formation rate = number of colonies/number of seeded cells × 100 %.

HCT116 cells [6] = assay: MitoTracker Red / Alexa Fluor 488 annexin V flow cytometry; assay type: cell-based, human; conditions: 2 or 4 μM, p < 0.001 vs control, data not shown
Experimental: The mitochondrial membrane potential and the induction of apoptosis were analyzed in HCT116 cells using the MitoTracker Red and Alexa Fluor 488 annexin V kits for flow cytometry as previously described (Karthikeyan et al., [2015]). Six well plates were used for seeding of cells, followed by incubation with 15j or 15k (0, 1, 2, and 4μM) for overnight. Subsequently, the cells were harvested, counted and 4 μl of a 10μM working solution of MitoTracker Red was added to each 1 ml cell suspension, followed by 30 min of incubation at 37°C with 5% CO2. The cells were resuspended in 100 μl of annexin binding buffer and 5 μl of Alexa Fluor 488 annexin V was added to the suspension and incubated for 15 min. Finally, 400 μl of annexin-binding buffer was added and the stained cells were detected by flow cytometry. The fluorescence emission at 530 and 585 nm was measured using a BD Accuri™ C6 flow cytometer and analyzed using FCS express 5 plus De Novo software.

LOVO cells [7] = assay: Transwell migration assay; assay type: cell-based, human; conditions: 2 and 4 μM, 24 h, vs vehicle
Experimental: as §2

LOVO cells [8] = assay: Wound healing assay; assay type: cell-based, human; conditions: 2 and 4 μM, 24 h and 48 h, vs vehicle
Experimental: In brief, the metastatic CRC cells (LOVO) were seeded in 6 well plates and allowed to grow as a monolayer until they reached 100% confluence. Upon confluence, 200 μl sterile tips were used to create a wound by gentle scratching of the complete cell monolayer. Sterile PBS was used to wash the cells several times to remove any floating cells. Different concentrations of the test compound were prepared in the culture media and added immediately after wound formation. The closure of the wound was observed by taking pictures at different time points by an EVOS microscope. Finally, the area of the wounds at different time points was calculated using Image J software (NIH, Bethesda, Maryland, USA).

| SMILES | IC50 (HCT116 [1]) | IC50 (LOVO) | IC50 (S1) | IC50 (CHO) | IC50 (CRL-1459) | fold more efficacious than compound 15c (HCT116 [1]; from MTT IC50, cell line not given) | fold more efficacious than compound 15c in LOVO and S1 cells ([2]; from MTT IC50, LOVO and S1) | effect on the cell cycle (HCT116 [3]) | trans-well migration (COLO 205 cell line) | IC50 (HCT116 cells [4]) | colony formation rate (HCT116 cells [5]) | mitochondrial membrane potential and apoptosis (HCT116 cells [6]) | number of cells migrated through transwell (LOVO cells [7]) | cell migration, wound closure (LOVO cells [8]) | selectivity, CRC cells compared to normal cells ([2]; MTT, vs CRL1459 and CHO) |
| --- | --- | --- | --- | --- | --- | --- | --- | --- | --- | --- | --- | --- | --- | --- | --- |
| O=C(/C=C/c1cccc(OCc2ccccc2)c1)c1ccccc1 [Compound 15a] | 6.4 ± 0.2 µM | 11.5 ± 0.8 µM | 2.8 ± 0.5 µM | 22 ± 1.7 µM | 7.8 ± 1 µM | – | – | – | – | – | – | – | – | – | – |
| O=C(/C=C/c1cccc(OCc2ccccc2)c1)c1ccc(Cl)cc1 [Compound 15b] | 12.7 ± 1.4 µM | 36.5 ± 1.5 µM | 9.5 ± 1.4 µM | 43.6 ± 1.9 µM | 12.8 ± 2.1 µM | – | – | – | – | – | – | – | – | – | – |
| O=C(/C=C/c1cccc(OCc2ccccc2)c1)c1ccc(Cl)cc1Cl [Compound 15c] | 9 ± 1.1 µM | 6.7 ± 2.2 µM | 6.9 ± 1.1 µM | 27.5 ± 1.2 µM | 7.8 ± 1.1 µM | – | – | – | – | – | – | – | – | – | – |
| O=C(/C=C/c1cccc(OCc2ccccc2)c1)c1ccc([N+](=O)[O-])cc1 [Compound 15d] | 22.7 ± 4.2 µM | 36.3 ± 9.1 µM | 9 ± 1.2 µM | 82.4 ± 1.7 µM | 26 ± 1.6 µM | – | – | – | – | – | – | – | – | – | – |
| Cc1ccc(C(=O)/C=C/c2cccc(OCc3ccccc3)c2)cc1 [Compound 15e] | 16.5 ± 3.1 µM | 36.5 ± 1.3 µM | 22.4 ± 1.9 µM | 26.4 ± 0.9 µM | 19.8 ± 1.3 µM | – | – | – | – | – | – | – | – | – | – |
| COc1ccc(C(=O)/C=C/c2cccc(OCc3ccccc3)c2)cc1 [Compound 15f] | 44.7 ± 3.1 µM | 11.8 ± 3.5 µM | 23.4 ± 2.4 µM | 22.9 ± 0.3 µM | 25.4 ± 1.9 µM | – | – | – | – | – | – | – | – | – | – |
| O=C(/C=C/c1cccc(OCc2ccccc2)c1)c1ccc(Cl)c(Cl)c1Cl [Compound 15g] | 0.4 µM | 2.4 ± 0.4 µM | 2.3 ± 0.7 µM | 8.6 ± 0.9 µM | 2.5 ± 0.2 µM | 22 fold | three-fold | – | – | – | – | – | – | – | – |
| O=C(/C=C/c1cccc(OCc2ccccc2)c1)c1ccccc1Br [Compound 15h] | 0.7 ± 0.2 µM | 1.9 ± 0.3 µM | 1.9 ± 0.5 µM | 9.1 ± 0.2 µM | 2.4 ± 0.9 µM | – | – | – | – | – | – | – | – | – | – |
| O=C(/C=C/c1cccc(OCc2ccccc2)c1)c1cccc(Br)c1 [Compound 15i] | 1.9 ± 0.1 µM | 7.5 ± 0.9 µM | 6.2 ± 1.9 µM | 9.2 ± 0.4 µM | 7.2 ± 0.9 µM | – | – | – | – | – | – | – | – | – | – |
| O=C(/C=C/c1cccc(OCc2ccccc2)c1)c1ccc(Br)cc1 [Compound 15j] | 1 ± 0.2 µM | 1.8 ± 0.4 µM | 2.4 ± 0.7 µM | 9 ± 0.5 µM | 5.4 ± 1 µM | – | – | significantly increased the level of cells in the sub G1 phase | significantly reduced the trans-well migration | 0.69 µM | significantly decreased colony formation rate | significant reduction in membrane potential and increase in the number of cells undergoing apoptosis | significantly reduced the trans-well migration | migrated significantly slower | selectively cytotoxic |
